Reference: ChEMBL document CHEMBL1201862, “PubChem BioAssay data set” (2004)
Activity calls are given as the source filed them.

How the values were obtained:
[1] = HEp-2 cell cytotoxicity, dose response, cytotoxicity control for RSV inhibitor project, HTS (AID 2410); type: functional; details: human respiratory syncytial virus
[2] = inhibitors of HIV Env-driven cell fusion, dose response, cherry-pick (AID 652057); type: functional, cell-based
[3] = inhibitors of clade B AD8 Env fusion, dose response, cell-based, cherry-pick (AID 652062); type: functional;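 note: luciferase signal from cell-cell fusion driven by HIV-1 clade B AD8 Env; potency is for inhibitors of fusion seen as a drop in luminescence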
[4] = CEM21 lymphoblast cell cytotoxicity, dose response, cytotoxicity control for viral fusion inhibitor project, CellTiter-Glo luminescence, cherry-picked (AID 652042); type: functional, cell-based;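 note: potency for signal decrease meaning cytotoxicity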
[5] = off-target signal loss in HeLa-CEM21 co-culture – HeLa F-luc CTL cells, cherry-picked, counter-screen for HIV-1 Env fusion inhibitor project, dose response (AID 652040); type: functional, cell-based;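 note: potency for signal decrease marking cytotoxic or nonspecific inhibition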
Cysteine protease ATG4B = biological target: T1, Cysteine protease ATG4B (Homo sapiens, UniProt Q9Y4P1); type: functional;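 note: Fluorescence-based dose-response confirmation assay measuring inhibition of ATG4B activity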
T1 sequence (Q9Y4P1 whole entry): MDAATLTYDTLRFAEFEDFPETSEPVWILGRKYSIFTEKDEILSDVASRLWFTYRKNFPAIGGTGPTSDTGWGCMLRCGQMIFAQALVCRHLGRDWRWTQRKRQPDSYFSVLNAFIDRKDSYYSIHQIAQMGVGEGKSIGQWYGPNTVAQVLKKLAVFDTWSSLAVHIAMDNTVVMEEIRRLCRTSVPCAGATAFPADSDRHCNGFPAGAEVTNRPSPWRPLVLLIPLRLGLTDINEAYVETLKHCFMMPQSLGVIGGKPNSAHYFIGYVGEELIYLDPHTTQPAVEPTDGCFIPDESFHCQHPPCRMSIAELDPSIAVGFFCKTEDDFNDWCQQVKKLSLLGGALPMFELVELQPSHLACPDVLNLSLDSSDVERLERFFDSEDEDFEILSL

Phospholipase A2 = Phospholipase A2 (Homo sapiens, UniProt P04054); type: functional;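 note: confirmatory dose-response counterscreen on phospholipase A2, testing hits that came from an ultra-high-throughput screen for ATG4B inhibitors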
[6] = biological target: T2, Probable nicotinate-nucleotide adenylyltransferase (Staphylococcus aureus (strain N315), UniProt P65502); type: functional, Staphylococcus aureus subsp. aureus N315;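 for IC50 Mean: confirmatory dose-response retesting of NadD inhibitor hits first found in an ultra-high-throughput screen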
[7] = Luminescence Cell-Based Dose Confirmation HTS to Identify Inhibitors of Platelet Dense Granule Release. [Related pubchem assays: 1663 (Primary HTS), 1678 (Summary of Project)]; type: functional
[8] = biological target: T2, Probable nicotinate-nucleotide adenylyltransferase; type: functional, Staphylococcus aureus subsp. aureus N315; details: read-out: IC50_Mean
[9] = biological target: Luciferin 4-monooxygenase (Photinus pyralis, UniProt P08659); assay: firefly luciferase enzyme inhibitors, dose response, biochemical, luminescence (AID 1891)
Galanin receptor type 3 = biological target: T3, Galanin receptor type 3 (Homo sapiens, UniProt O60755); assay: Fluorescence-based cell-based primary high throughput dose response assay to identify antagonists of the Galanin Receptor 3 (GalR3).; type: functional
T3 sequence (O60755 whole entry): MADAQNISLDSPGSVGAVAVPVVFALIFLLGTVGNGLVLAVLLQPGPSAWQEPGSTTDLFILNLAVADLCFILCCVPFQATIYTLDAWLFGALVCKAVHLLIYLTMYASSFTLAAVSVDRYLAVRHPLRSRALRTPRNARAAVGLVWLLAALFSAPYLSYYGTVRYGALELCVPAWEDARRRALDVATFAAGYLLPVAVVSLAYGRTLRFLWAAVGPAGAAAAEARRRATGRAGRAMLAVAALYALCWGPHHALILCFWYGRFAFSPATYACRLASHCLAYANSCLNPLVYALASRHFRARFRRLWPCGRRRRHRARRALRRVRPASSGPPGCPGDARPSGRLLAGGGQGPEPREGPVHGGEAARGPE

cells = type: functional, cell-based; details: HEK-CNG
BJ [10] = assay: cytotoxicity toward Ras-transformed BJeLR fibroblasts, dose response, cell-based, alamar blue fluorescence, cherrypicked samples (AID 2631); type: functional; details: Homo sapiens;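 note: confirmatory dose-response assay in RAS-dependent BJ fibroblasts engineered with TERT, LT and ST, with cytotoxicity read by fluorescence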
INS1 = assay: beta cell apoptosis inhibitors, cytokine rescue, dose response, luminescence, retest (AID 449756); type: functional, cell-based; details: Rattus norvegicus;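 note: cell death triggered by IL-1 beta plus TNF-alpha plus IFN-gamma mixture; protective hits raise ATP signal compared with cytokine alone wells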
BJ [11] = assay: cytotoxicity toward BJ-TERT-LT-ST fibroblasts, dose response, cell-based, RAS-independent, luminescence (AID 1935); type: functional; details: Homo sapiens;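 note: BJ fibroblasts immortalized with TERT plus LT and ST oncogenes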
BJ [12] = assay: cells; type: functional, cell-based; details: Homo sapiens
[13] = cytotoxicity toward DRD oncogenic fibroblasts, dose response, cell-based, non-viral oncogenic, luminescence (AID 1934); type: functional; details: Homo sapiens
BJ [14] = assay: cytotoxicity toward BJ-TERT fibroblasts, dose response, cell-based, RAS-independent, luminescence (AID 1933); type: functional; details: Homo sapiens
[15] = biological target: T4, DNA repair protein RAD52 homolog (Homo sapiens, UniProt P43351); type: functional, biochemical
T4 sequence (P43351 whole entry): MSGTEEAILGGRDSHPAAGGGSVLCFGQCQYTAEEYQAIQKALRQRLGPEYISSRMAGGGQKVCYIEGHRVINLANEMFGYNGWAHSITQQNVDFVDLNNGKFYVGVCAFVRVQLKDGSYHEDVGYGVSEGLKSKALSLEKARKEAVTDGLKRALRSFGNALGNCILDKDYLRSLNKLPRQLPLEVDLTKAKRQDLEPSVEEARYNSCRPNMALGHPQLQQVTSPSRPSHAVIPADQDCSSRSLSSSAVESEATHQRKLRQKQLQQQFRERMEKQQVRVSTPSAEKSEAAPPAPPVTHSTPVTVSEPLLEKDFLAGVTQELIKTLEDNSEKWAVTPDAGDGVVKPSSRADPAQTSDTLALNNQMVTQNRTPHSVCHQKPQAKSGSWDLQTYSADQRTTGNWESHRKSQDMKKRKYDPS

[16] = biological target: T5, DNA repair and recombination protein RAD54-like (Homo sapiens, UniProt Q92698); assay: inhibitors of human RAD54 branch migration, confirmation, biochemical, fluorescence, cherry-picked samples, dose series (AID 651657); type: functional
T5 sequence (Q92698 whole entry): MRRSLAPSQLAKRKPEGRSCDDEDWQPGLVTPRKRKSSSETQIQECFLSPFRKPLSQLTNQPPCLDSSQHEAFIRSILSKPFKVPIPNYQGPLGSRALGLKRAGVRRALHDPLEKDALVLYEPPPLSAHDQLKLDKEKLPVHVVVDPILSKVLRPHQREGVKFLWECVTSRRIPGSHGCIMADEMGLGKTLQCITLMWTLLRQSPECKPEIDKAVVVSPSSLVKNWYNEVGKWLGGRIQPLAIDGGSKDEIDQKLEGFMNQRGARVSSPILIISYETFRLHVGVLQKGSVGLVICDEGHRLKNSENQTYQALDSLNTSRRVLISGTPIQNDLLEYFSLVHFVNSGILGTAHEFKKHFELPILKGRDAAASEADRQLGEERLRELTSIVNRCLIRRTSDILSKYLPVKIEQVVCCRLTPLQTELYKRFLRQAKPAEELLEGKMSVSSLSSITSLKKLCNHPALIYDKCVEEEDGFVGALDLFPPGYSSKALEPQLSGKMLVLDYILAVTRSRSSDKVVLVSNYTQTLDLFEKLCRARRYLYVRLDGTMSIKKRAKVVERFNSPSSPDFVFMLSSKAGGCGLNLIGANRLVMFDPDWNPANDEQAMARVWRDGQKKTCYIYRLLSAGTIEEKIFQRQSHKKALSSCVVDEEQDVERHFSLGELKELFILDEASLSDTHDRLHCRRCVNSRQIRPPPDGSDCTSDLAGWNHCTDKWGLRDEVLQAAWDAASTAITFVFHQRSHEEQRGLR

[17] = ZM109 Env clade C HIV-1 fusion inhibitors, dose response, HeLa effector, CEM target cells, luciferase, cherry-pick (AID 652058); type: functional, cell-based
[18] = biological target: Heat shock protein HSP 90-alpha (Homo sapiens, UniProt P07900); type: functional, organism-based
[19] = inhibitors of intracellular T. cruzi replication, confirmation, NIH3T3 host cells, beta-gal luminescence (AID 2044); type: functional, cell-based;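 note: intracellular parasites grown in NIH/3T3 mouse fibroblasts as host cells; luminescent beta-galactosidase reporter signal from transgenic T. cruzi replicating inside host cells; inhibitors lower the luminescence signal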
[20] = biological target: T6, Sentrin-specific protease 8 (Homo sapiens, UniProt Q96LD8); type: functional
T6 sequence (Q96LD8 whole entry): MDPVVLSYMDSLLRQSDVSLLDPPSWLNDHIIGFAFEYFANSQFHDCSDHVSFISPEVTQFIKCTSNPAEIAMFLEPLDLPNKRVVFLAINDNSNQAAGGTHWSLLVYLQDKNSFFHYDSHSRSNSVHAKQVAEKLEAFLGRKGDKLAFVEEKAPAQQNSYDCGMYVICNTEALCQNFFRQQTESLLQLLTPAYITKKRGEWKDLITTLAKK

[21] = cytotoxicity toward NIH3T3 fibroblasts, dose response, counter-screen, cell-based, ATP luminescence, mouse fibroblasts (AID 2010); type: functional;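 note: cells exposed to compound for about 90 hours before reading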
[22] = biological target: T6, Sentrin-specific protease 8; type: functional; remark: listed apart in the source

T2 sequence (P65502 whole entry): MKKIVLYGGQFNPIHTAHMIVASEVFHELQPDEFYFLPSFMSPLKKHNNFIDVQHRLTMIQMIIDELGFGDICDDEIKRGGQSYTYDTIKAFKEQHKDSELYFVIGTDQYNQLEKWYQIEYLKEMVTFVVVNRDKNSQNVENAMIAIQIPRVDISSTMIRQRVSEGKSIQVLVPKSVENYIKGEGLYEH
Chain of Luciferin 4-monooxygenase (P08659 whole entry): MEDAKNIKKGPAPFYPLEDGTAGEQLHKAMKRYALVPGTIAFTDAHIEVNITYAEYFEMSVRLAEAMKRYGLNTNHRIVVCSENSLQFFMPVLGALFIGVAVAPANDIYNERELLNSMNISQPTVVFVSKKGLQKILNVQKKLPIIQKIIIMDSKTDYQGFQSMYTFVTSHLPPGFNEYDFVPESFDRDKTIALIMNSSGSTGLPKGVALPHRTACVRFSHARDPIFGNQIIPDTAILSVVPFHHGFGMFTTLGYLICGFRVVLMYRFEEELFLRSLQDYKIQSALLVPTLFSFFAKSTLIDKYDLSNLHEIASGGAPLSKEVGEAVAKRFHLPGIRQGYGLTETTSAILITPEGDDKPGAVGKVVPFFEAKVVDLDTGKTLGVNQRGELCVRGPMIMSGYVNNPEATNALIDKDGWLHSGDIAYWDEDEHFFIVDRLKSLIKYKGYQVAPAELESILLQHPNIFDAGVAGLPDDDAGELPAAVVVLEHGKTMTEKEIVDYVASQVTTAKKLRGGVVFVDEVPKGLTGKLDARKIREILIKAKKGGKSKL
Chain of Phospholipase A2 (P04054 whole entry): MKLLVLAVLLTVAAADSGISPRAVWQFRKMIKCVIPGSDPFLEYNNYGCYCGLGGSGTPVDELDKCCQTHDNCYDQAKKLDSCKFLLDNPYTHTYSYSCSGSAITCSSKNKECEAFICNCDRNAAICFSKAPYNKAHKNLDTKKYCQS

## Cc1n[nH]c2c1C1(C(=O)N(Cc3ccc(Cl)cc3)c3ccccc31)C(C#N)=C(N)O2 (configuration not stated)
[1]
  CC50: 25.1 µM (active)
[2]
  AC50: 3.62 µM (active)
[3]
  AC50: 39.6 µM (active)
[4]
  AC50: 59.1 µM (active)
[5]
  AC50: 55.2 µM (active)

## CC1CC(C)CN(C(=O)C2CCN(S(=O)(=O)c3ccc4c(c3)CC(C)N4C(=O)C3CC3)CC2)C1 (configuration not stated)
Cysteine protease ATG4B
  IC50: 14.5 µM (active)
Phospholipase A2
  IC50: 7.55 µM (active)

## COc1cccc(C2c3c(-c4cc(Cl)c(C)cc4O)n[nH]c3C(=O)N2Cc2cccnc2)c1 (configuration not stated)
[6]
  IC50: 21.5 µM (active)
[7]
  EC50: 41.2 µM (active)
[8]
  IC50: 46 µM (active)
[9]
  EC50: > 112 µM (not active)

## CC1CC(=O)NN=C1c1ccc(NCCO)c([N+](=O)[O-])c1 (configuration not stated)
Galanin receptor type 3
  IC50: 0.367 µM (active)
cells
  EC50: > 29.9 µM (inactive)
[7]
  EC50: < 0.088 µM (active)
[9]
  EC50: > 112 µM (not active)

## O=C(COc1ccc(Cl)cc1)Nc1ccc(C(=O)NCc2cccnc2)cc1
BJ [10]
  EC50: 25.6 µM (active)
INS1
  AC50: < 0.195 µM (active)
BJ [11]
  EC50: 18.8 µM (inconclusive)
BJ [12]
  EC50: 2.87 µM (active)
[13]
  EC50: > 150 µM (inconclusive)
BJ [14]
  EC50: > 150 µM (not active)

## COc1cccc(-c2cnc3c(NC(C)=O)cc(-c4cccc(C(=O)NCCN(C)C)c4)cn23)c1
[15]
  AC50: 2.42 µM (active)
[16]
  AC50: 26.7 µM (active)

## CCCCCCCCN1C(=O)[C@H](CC(=O)N2CCCCC2)C[C@@]2(C(=O)OCC)CCCC=C12
[2]
  AC50: 8.73 µM (active)
[3]
  AC50: 0.465 µM (active)
[17]
  AC50: 13.9 µM (active)
[4]
  AC50: 37.2 µM (active)
[5]
  AC50: > 70 µM (inactive)

## CN(C)c1ccc2c(c1)[C@@H]1C[C@H](CC(=O)NCc3ccc(-c4ccccc4)cc3)O[C@@H](CO)[C@@H]1O2
[2]
  AC50: < 0.26 µM (active)
[3]
  AC50: 2.51 µM (active)
[4]
  AC50: 40.9 µM (active)

## Cc1ccc(NC(=S)N/N=C/c2ccc([N+](=O)[O-])s2)cc1
INS1
  AC50: 6.72 µM (active)
[18]
  AC50: 3.4 µM (active)
[19]
  EC50: 1.34 µM (active)
[20]
  IC50: 21.5 µM (active)
[21]
  EC50: 7.86 µM (active)
[22]
  IC50: 18.4 µM (active)
